Laboratory results reported in patent US8623377B2, “Joint-homing peptides and uses thereof” (University of Maryland, Baltimore, priority 2011, dated 2014).

Columns and labels:
HUVECs = test: Endothelial tube (tubule) formation on Matrigel with VEGF; assay type: cell-based, human; settings: VEGF 10 ng/mL, peptide 0-100 μg/mL
Procedure: FIG. 4A: Draining lymph node leukocytes from arthritic rats were dye-tagged with PKH67 and injected i.v. into arthritic rats. One group of rats was left untreated, and the other groups were treated with ADK or NQR peptide. After 24 hours, the synovium-infiltrating cells (SICs) were harvested from the joints, subjected to cytospin, and analyzed by fluorescence microscopy (left). In parallel, another set of synovium-infiltrating cells were stained with PE-labeled anti-CD3 or anti-CD 11b/c+ antibody and analyzed by flow cytometry (right). FIG. 4B: HUVECs were cultured on Matrigel-coated wells for 24 hours in the presence of VEGF (10 ng/mL) and various concentrations (0-100 μg/mL) of NQR (left), ADK (center), and RGD (right) peptides. The branches of vessel-like tubes were counted. A reprensentative set of results is shown. *P<0.05, compared with the VEGF-alone control.
HUVECs (1×10^4) were cultured in 80 μL/well of growth factor-reduced Matrigel (BD Biosciences) in a 96-well plate in 100 μL/well of F-12K medium (with no supplements). These cells were then treated for 20 h with VEGF (R&D Systems) in the presence or absence of different concentrations of peptides (NQR, ADK, or RGD). Tubule formation was observed under a microscope, quantitated, and photographed.

Akt = test: VEGF-induced signaling in HUVECs, Western blot p-Akt; assay type: cell-based, human; settings: peptide 10, 50, 100 μg/mL 1 h, then VEGF 10 ng/mL 20 min
Source text: (§1) FIG. 6A: HUVECs were stimulated with VEGF and treated with the indicated concentrations of peptides. Phosphorylated ERK1/2 and Akt, as well as total ERK1/2 and Akt, were detected by Western blot analysis. FIG. 6B: Thereafter, p-ERK1/2 and p-Akt were quantified by densitometry, normalized to total ERK1/2 (left) and Akt (right), respectively, and compared with cells in serum-free medium. The results of a representative experiment from a set of three independent experiments are shown. *P<0.05, compared with the positive control.
(§2) HUVECs were grown in F-12K medium in the presence of endothelial cell growth supplement (ECGS) (BD Biosciences) and 15% FBS. Confluent cells were starved in basal medium (without ECGS and FBS) for 6 h. Then the cells were pretreated for 1 h with different concentrations (10, 50, and 100 μg/mL) of a peptide (NQR, ADK, or RGD) in fresh basal medium, followed by treatment with VEGF (10 ng/mL) for another 20 min. The conditional medium was discarded, and the cells were lysed using a lysis buffer containing protease inhibitors and phosphatase inhibitors. The cell lysate was then centrifuged, and the resulting supernatant was used for analysis of signaling molecules using specific antibodies to human pERK1/2, ERK1/2, pAkt, Akt, and GAPDH (Cell Signaling Technology) by Western blot analysis. The intensity of the bands in the gel was quantified by densitometry. The levels of p-ERK1/2 and p-Akt were normalized to total ERK1/2 and Akt, respectively, and compared with cells in serum-free medium.

[1] = tested on: HUVECs attachment to vitronectin; test: Attachment of HUVECs to vitronectin; assay type: cell-based, human; settings: peptide 30-800 μg/mL, 1 h on vitronectin-coated wells
Procedure: HUVECs were first suspended in F-12K medium containing the indicated concentrations of NQR, AK or RGD peptide and then incubated for 1 h in microtiter wells coated with vitronectin. The number of cells that attached to vitronectin was quantified. The results of three independent experiments are shown. *P<0.05, compared with the baseline control.
The attachment of HUVECs to vitrnectin was quantified as described (37, 38). Microtiter wells were coated overnight at 4° C. with 2 μg/mL of vitronectin (BD Biosciences). These wells were then blocked for 1 h at 37° C. with 10 mg/mL of BSA (Sigma-Aldrich). In parallel, HUVECs (1.5×10^5 cells/mL) suspended in F-12K medium containing 10% FBS were incubated for 15 min at 37° C. with different concentrations (30-800 μg/mL) of NQR, ADK, or RGD peptide. Thereafter, this cell suspension 100 μL/well) was added to the vitronectin-coated wells, followed by incubation at 37° C. for 1 h. After washing, the number of attached cells was determined using crystal violet (Fisher Scientific).

ERK1/2 = test: VEGF-induced signaling in HUVECs, Western blot p-ERK1/2; assay type: cell-based, human; settings: peptide 10, 50, 100 μg/mL 1 h, then VEGF 10 ng/mL 20 min
Source text: as §1, §2

[2] = tested on: adjuvant arthritis in Lewis rats; test: Antiarthritic activity in the adjuvant arthritis (AA) model, arthritic score; assay type: in vivo, Lewis rat
Procedure: FIG. 3A: Group of arthritic Lewis rats (n=4 per group) were injected with a peptide (AD, NQR, or RGD) or PBS i.v. on the days indicated by the arrows either at the onset or just after the onset of arthritis. The its were monitored regularly for the disease severity, presented as “arthritic score”. […] The sections were graded for histopathological features associated with arthritis. B, bone; C, cartilage, JS, joint space; SIC, synovium-infiltrating cells.
The synthetic peptide corresponding to the selected phage-encoded peptide was diluted in PBS and injected i.v. into Lewis rats beginning either at the onset or just after the onset of arthritis after Mtb injection. The peptide was injected to rats on alternate days at a dose of 1 or 2 mg/kg body weight. A total of three or four injections were given to each rat. Control animals received an equal volume of PBS. All rats were graded regularly for clinical signs of arthritis (36). The hind paws of these rats were harvested and processed for histopathological examination.
AA was induced in Lewis rats by immunizing them with 1 mg/rat of heat-killed M. tuberculosis H37Ra (Mtb; Difco) in 200 μL of mineral oil (Sigma-Aldrich) via s.c. injection at the base of the tail. Beginning on day 7 after immunization, the rats were observed regularly for signs of arthritis in the paws. The severity of arthritis was evaluated based on erythema and swelling as described previously. The highest score for each paw was 4, and the total maximum score for each rat was 16. The course of AA in the Lewis rat involved the following phases: incubation (days 0-8), onset (days 9-11), peak (days 15-18), and recovery (days 21-27).

αvβ3 = target: T1, αvβ3 (Oryctolagus cuniculus, UniProt A0A5F9CTL5+A0A5F9D0E2); settings: intra-articular injection, rabbits with antigen-induced arthritis; cited from earlier work
T1 construct: host or cells: rabbit joints in vivo (intra-articular injection)
T1 sequence (A0A5F9D0E2 30-1047): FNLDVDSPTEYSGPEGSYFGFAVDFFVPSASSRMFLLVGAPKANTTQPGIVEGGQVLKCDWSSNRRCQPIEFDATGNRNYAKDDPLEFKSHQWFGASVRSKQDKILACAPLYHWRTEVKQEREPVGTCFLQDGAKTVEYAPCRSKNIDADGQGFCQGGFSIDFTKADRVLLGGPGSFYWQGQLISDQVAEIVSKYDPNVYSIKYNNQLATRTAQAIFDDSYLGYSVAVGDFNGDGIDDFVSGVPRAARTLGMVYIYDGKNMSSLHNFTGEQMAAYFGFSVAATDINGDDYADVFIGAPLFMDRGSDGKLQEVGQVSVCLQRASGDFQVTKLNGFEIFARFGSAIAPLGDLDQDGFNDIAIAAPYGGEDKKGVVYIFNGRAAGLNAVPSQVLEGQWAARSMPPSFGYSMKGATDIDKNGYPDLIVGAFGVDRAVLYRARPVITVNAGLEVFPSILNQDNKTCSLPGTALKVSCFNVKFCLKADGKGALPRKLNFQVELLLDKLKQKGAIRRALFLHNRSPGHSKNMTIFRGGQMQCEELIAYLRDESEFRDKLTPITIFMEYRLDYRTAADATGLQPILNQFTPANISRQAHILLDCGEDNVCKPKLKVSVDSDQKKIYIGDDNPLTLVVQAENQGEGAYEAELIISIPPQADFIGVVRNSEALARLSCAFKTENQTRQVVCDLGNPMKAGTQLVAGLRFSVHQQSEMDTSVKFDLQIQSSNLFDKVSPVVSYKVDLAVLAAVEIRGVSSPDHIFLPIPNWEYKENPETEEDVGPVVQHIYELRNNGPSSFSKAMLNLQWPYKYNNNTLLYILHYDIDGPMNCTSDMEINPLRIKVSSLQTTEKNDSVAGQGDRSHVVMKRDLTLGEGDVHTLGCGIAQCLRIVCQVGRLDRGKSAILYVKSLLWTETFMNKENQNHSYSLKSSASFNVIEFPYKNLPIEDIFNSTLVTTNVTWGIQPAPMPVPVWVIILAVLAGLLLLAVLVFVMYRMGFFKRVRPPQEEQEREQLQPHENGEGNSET
T1 sequence (A0A5F9CTL5 1-785): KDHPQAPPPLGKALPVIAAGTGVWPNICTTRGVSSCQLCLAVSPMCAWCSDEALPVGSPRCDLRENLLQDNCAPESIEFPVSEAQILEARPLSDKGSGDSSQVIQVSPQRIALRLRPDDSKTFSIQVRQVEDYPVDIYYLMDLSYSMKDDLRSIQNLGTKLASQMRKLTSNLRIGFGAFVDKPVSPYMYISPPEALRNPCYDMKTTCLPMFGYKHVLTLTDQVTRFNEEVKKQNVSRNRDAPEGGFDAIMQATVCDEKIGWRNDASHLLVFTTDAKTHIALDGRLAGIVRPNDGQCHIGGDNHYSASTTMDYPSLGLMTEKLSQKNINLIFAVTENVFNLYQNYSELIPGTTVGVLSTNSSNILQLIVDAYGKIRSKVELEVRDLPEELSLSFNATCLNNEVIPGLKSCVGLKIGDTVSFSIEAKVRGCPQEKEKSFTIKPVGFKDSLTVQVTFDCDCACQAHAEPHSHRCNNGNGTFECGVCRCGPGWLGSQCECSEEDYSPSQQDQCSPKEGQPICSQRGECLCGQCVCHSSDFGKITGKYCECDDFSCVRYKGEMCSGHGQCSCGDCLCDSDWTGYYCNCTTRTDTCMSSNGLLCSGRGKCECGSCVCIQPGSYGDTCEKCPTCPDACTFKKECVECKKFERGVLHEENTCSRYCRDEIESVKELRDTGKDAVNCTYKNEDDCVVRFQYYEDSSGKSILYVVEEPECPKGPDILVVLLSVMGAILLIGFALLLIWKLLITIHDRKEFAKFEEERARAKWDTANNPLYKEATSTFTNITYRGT

[3] = tested on: human synovial tissue engrafted s.c.; settings: human synovial tissue engrafted s.c. in SCID mice; cited from earlier work

With “CRNADKFPC (Synthetic peptide homing to joint in an animal) [ADK peptide, joint-homing phage-derived synthetic peptide]” the “effect on endothelial cell tube formation” value (HUVECs) was “had no effect”, the “effect on VEGF-induced pAkt” value (Akt) was “had no effect” and the “effect on attachment of HUVECs to vitronectin” value [1] was “Neither peptide had any effect”. The “effect on VEGF-induced pERK” value (ERK1/2) was “had no effect”.
For RGDfK [RGD peptide, reference compound], the “difference in arthritic score versus PBS/ADK” value ([2]; from day 15 to day 27 (FIG. 3A center)) was “significant”, the “suppression of the arthritic process” value ([2]; i.v. injection around the time of onset of arthritis, 1 or 2 mg/kg on alternate days) was “also suppressed arthritis” and the down-modulation of arthritis ([2]; injected just after the onset of AA) was “effective in down-modulating arthritis”. For the same substance, the “effect on endothelial cell tube formation” value (HUVECs) was “inhibited tube formation”, the “effect on VEGF-induced pAkt” value (Akt) was “the opposite was observed” and the “effect on attachment of HUVECs to vitronectin” value [1] was “significantly inhibited cell attachment”. For the same substance, the “effect on VEGF-induced pERK” value (ERK1/2) was “the opposite was observed”.
For RGDfV, the effect on arthritis (αvβ3) is listed as “reduce clinical arthritis, synovial angiogenesis, and joint damage”.
In the case of “CKSTHDRLC [literature peptide homing to human synovial tissue engrafted in SCID mice]”, the homing of peptide [3] is given as “homing to the human synovial tissue”.
